Experimental data reported in PubChem BioAssay (NCI).
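How tested: cells in 96-well plates exposed to compound for 48 hours at five concentrations. At the GI50, growth is halved. The concentration for full growth arrest is given as TGI.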

What was measured:
Assay in all cases: growth of human tumour cells (NCI), 48 h
A549 NSCLC = test system: A549 NSCLC
SNB-19 CNS = test system: SNB-19 CNS
OVCAR-4 ovarian = test system: OVCAR-4 ovarian
NCI/ADR-RES ovarian = test system: NCI/ADR-RES ovarian
SF-539 CNS = test system: SF-539 CNS
786-0 renal = test system: 786-0 renal
MALME-3M melanoma = test system: MALME-3M melanoma
SK-MEL-28 melanoma = test system: SK-MEL-28 melanoma
NCI-H460 lung = test system: NCI-H460 lung
SK-MEL-2 melanoma = test system: SK-MEL-2 melanoma

SMILES	GI50 (A549 NSCLC)	TGI (A549 NSCLC)	GI50 (SNB-19 CNS)	TGI (SNB-19 CNS)	GI50 (OVCAR-4 ovarian)	TGI (OVCAR-4 ovarian)	GI50 (NCI/ADR-RES ovarian)	TGI (NCI/ADR-RES ovarian)	GI50 (SF-539 CNS)	TGI (SF-539 CNS)	GI50 (786-0 renal)	TGI (786-0 renal)	GI50 (MALME-3M melanoma)	TGI (MALME-3M melanoma)	GI50 (SK-MEL-28 melanoma)	TGI (SK-MEL-28 melanoma)	GI50 (NCI-H460 lung)	TGI (NCI-H460 lung)	GI50 (SK-MEL-2 melanoma)	TGI (SK-MEL-2 melanoma)
COc1ncc(-c2ccc3nccc(C#CCN4CCN(S(C)(=O)=O)CC4)c3c2)cc1NS(=O)(=O)c1ccc(F)cc1F	0.083 µM	7.68 µM	0.299 µM	2.11 µM	0.264 µM	12 µM	0.465 µM	12.4 µM	0.0398 µM	0.272 µM	0.0522 µM	3.56 µM	0.015 µM	0.214 µM	0.0256 µM	0.843 µM	0.049 µM	4.71 µM	0.116 µM	1.13 µM
CN(CSc1ccc(Cl)cc1)c1ccc(CSc2ccc(Cl)cc2)cc1	5.22 µM	34.4 µM	9.14 µM	23.2 µM	3.15 µM	20 µM	8 µM	30.1 µM	2.35 µM	6.48 µM	1.8 µM	11 µM	12 µM	33.1 µM	5.55 µM	19.6 µM	3.65 µM	15.6 µM	14.2 µM	36.2 µM
FC(F)(F)c1ccc(-c2ncc(-c3ccc(C(F)(F)F)cc3)c(NCc3cc(C(F)(F)F)cc(C(F)(F)F)c3)n2)cc1	4.05 µM	> 100 µM	3.49 µM	> 100 µM	4.11 µM	> 100 µM	4.62 µM	> 100 µM	7.71 µM	> 100 µM	3.87 µM	> 100 µM	6.44 µM	46.3 µM	5.85 µM	> 100 µM	3.72 µM	79.4 µM	2.84 µM	8.93 µM
CCOc1cc(/C=C/C(=O)C(C(=O)/C=C/c2ccc(OC(=O)CNc3nnc(C)s3)c(OCC)c2)C(=O)CNc2nnc(C)s2)ccc1OC(=O)CNc1nnc(C)s1	2.36 µM	7.44 µM	2.52 µM	11.1 µM	3.91 µM	45.1 µM	3.51 µM	> 71.2 µM	1.17 µM	3.42 µM	2.16 µM	5.98 µM	2.36 µM	7.09 µM	1.45 µM	2.92 µM	1.97 µM	4.54 µM	2.02 µM	5 µM
CCCCN(CC)CCCCCCCCCCN1CCCc2cc(OC)ccc21	5.21 µM	20.9 µM	4.01 µM	18.8 µM	4.33 µM	19.6 µM	2.07 µM	6.15 µM	3.32 µM	9.35 µM	2.03 µM	3.94 µM	2.33 µM	4.98 µM	2.92 µM	7.33 µM	2.52 µM	6.6 µM	1.95 µM	4.15 µM
NCCCNc1nc2ccc(Cl)cc2c2c(=O)c3cc(F)ccc3sc12	1.77 µM	3.89 µM	9.43 µM	25.4 µM	4.3 µM	18 µM	2.23 µM	5.62 µM	3.79 µM	14.3 µM	1.92 µM	5.88 µM	6.91 µM	23.2 µM	10.1 µM	24.2 µM	1.73 µM	3.46 µM	12.4 µM	33.3 µM
C=C(CN1CCN(c2ccccc2C(F)(F)F)CC1)c1ccc(C(=O)Nc2ccccc2N)cc1	4.17 µM	33.8 µM	24.4 µM	> 100 µM	6.53 µM	> 84.3 µM	2.01 µM	10.5 µM	3.27 µM	41.7 µM	2.36 µM	15.1 µM	4.17 µM	> 64.1 µM	10.4 µM	> 100 µM	5.59 µM	43.6 µM	10.3 µM	> 95.1 µM
Cc1cc(C(O)(c2ccc(Nc3ccccc3)cc2)c2ccc(Nc3ccc(S(=O)(=O)O)cc3)cc2)ccc1N (stereo not drawn)	1.55 µM	3.25 µM	1.39 µM	3.48 µM	1.31 µM	3.39 µM	1.83 µM	4.58 µM	1.64 µM	3.32 µM	1.02 µM	2.27 µM	1.58 µM	3.11 µM			1.32 µM	2.78 µM	1.55 µM	4.68 µM
CS(=N)(=O)CCC(N)P(=O)(O)O (stereo not drawn)		> 100 µM		> 100 µM		> 100 µM		> 100 µM		> 100 µM		> 100 µM		> 100 µM		> 100 µM		> 100 µM		> 100 µM
O=C1c2cccnc2C(=O)c2c1c(C(=O)OCCc1ccccn1)c1ccccn21	0.248 µM	1.56 µM	0.0308 µM	1.59 µM	1.13 µM	8.39 µM	0.0252 µM	1.15 µM	0.0334 µM	0.432 µM	0.252 µM	1.26 µM	0.0613 µM	0.924 µM	0.0749 µM	1.55 µM	< 0.01 µM	0.079 µM	0.351 µM	3.47 µM
COc1cc2c3c(n(CCCN4CCCNCC4)c(=O)c2cc1OC)-c1cc2c(cc1C3=O)OCO2	0.322 µM	6.95 µM	1.26 µM	9.62 µM	2.91 µM	11.1 µM	0.493 µM	6.69 µM	0.29 µM	1.37 µM	0.268 µM	1.14 µM	2.47 µM	11.9 µM	2.49 µM	14.1 µM	0.0545 µM	6.47 µM	3.7 µM	17.6 µM
Oc1ccc(Cc2ccc(O)c(C3CC(c4ccc(Cl)cc4)=NN3)c2)cc1C1CC(c2ccc(Cl)cc2)=NN1 (stereo not drawn)	2.79 µM	> 100 µM	3.65 µM	> 43.6 µM	2.97 µM	> 44.6 µM	2.54 µM	> 34.5 µM	4.69 µM	> 40.2 µM	3.53 µM	> 40.2 µM	5.03 µM	> 100 µM	5.74 µM	> 49.9 µM	2.19 µM	8.87 µM	2.96 µM	10.5 µM
